Measurements published in patent publication US20250296938A1, “Compounds that Interact with the Ras Superfamily for the Treatment of Cancers, Inflammatory Diseases, Rasopathies, and Fibrotic Disease” (SHY Therapeutics, LLC, priority 2018, published 2025).

Tested on: AKT phosphorylation
Assay: Western AKT cell-based phosphorylation assay, PANC-1
Details: Homo sapiens, 6 hours, EGF stimulation, PANC-1
Description: Human tumor-derived pancreatic cancer cell line Panc-1 was purchased from American Type Culture Collection and grown in complete DMEM-High Glucose supplemented with penicillin (100 U/mL), streptomycin (100 μg/mL), and 10% heat-inactivated FBS at 37° C. in a humidified incubator with 5% CO2.
(§1) Method: Cells were plated at 350000 cells/well density in a 12-well plate, allowed 3 hours to adhere to the plate, then starved in the appropriate medium in the presence of 0.5% FBS overnight. The small molecules to be tested were added to the cells in the final concentration of 10 μM in the presence of 0.3% DMSO for 6 hours incubation at 37° C. Next, cells were stimulated with 1.5 ng/ml EGF for 15 minutes then cells were lysed with lysis buffer containing 1% Triton X-100, EDTA, and Halt™ Protease & Phosphatase Inhibitor Cocktail (Thermo Scientific). Protein concentration was assessed by BCA protein assay (Thermo Scientific). Phosphorylation level of Akt was determined by western blot.
(§2) Western blot protocol: Equal amounts of protein (15-50 μg) were separated by SDS-PAGE and transferred to nitrocellulose membranes (Invitrogen by Thermo Fisher Scientific). The membrane was stained with Ponceau S Stain (Boston BioProducts) to verify uniform protein loading. Membranes were blocked with 10% milk and phosphorylation levels of Akt were assessed by incubating overnight at 4° C. with anti-phospho-Akt (Ser473) antibody (Cell Signaling) followed by HRP-conjugated secondary antibody (Jackson Immunoresearch, West Grove, PA). Bands were incubated in Amersham ECL Prime Western Blotting Detection Reagent (GE Healthcare) and visualized using the ChemiDoc MP imaging system (Bio-Rad).

| Compound | inhibition at 10 µM [%] |
| --- | --- |
| COc1cccc(-c2csc3c(O)nc(-c4nccn4C)nc23)c1Cl [drawing 386] | 0 |
| Cn1ccnc1-c1nc(O)c2scc(-c3ccccn3)c2n1 [drawing 387] | 0 |
| Oc1nc(-c2ncc3n2CCCC3)nc2c(-c3ccccn3)csc12 [drawing 388] | 0 |
| Oc1nc(-c2cn3ccccc3n2)nc2c(-c3ccccn3)csc12 [drawing 389] | 0 |
| COCCn1ccnc1-c1nc(O)c2scc(-c3ccccn3)c2n1 [drawing 390] | 0 |
| Cc1cc(Cn2ccnc2-c2nc(O)c3scc(-c4ccccn4)c3n2)on1 [drawing 391] | 0 |
| Oc1nc(-c2nccn2Cc2ccccn2)nc2c(-c3ccccn3)csc12 [drawing 392] | 0 |
| COc1cccc(Cn2ccnc2-c2nc(O)c3scc(-c4ccccn4)c3n2)c1 [drawing 393] | 0 |
| Cc1cnc(-c2nc(O)c3scc(-c4ccccn4)c3n2)n1C [drawing 394] | 0 |
| Cc1cn(C)c(-c2nc(O)c3scc(-c4ccccn4)c3n2)n1 [drawing 395] | 0 |
| Oc1nc(-c2ncc3ccccn23)nc2c(-c3ccccn3)csc12 [drawing 396] | 0 |
| Oc1nc(-c2cn3cccnc3n2)nc2c(-c3ccccn3)csc12 [drawing 397] | 0 |
| Oc1nc(-c2cn(-c3ccccc3)cn2)nc2c(-c3ccccn3)csc12 [drawing 398] | 0 |
| COc1ccc(Cn2cnc(-c3nc(O)c4scc(-c5ccccn5)c4n3)c2)cc1 [drawing 399] | 0 |
| COCCCNc1nc(-c2nccn2C)nc2sc(-c3ccn(C)n3)c(-c3ccccc3)c12 [drawing 400] | 0 |
| COCCCN(C)c1nc(-c2nccn2C)nc2sc(-c3ccn(C)n3)c(-c3ccccc3)c12 [drawing 401] | 0 |
| COCC(C)Nc1nc(-c2nccn2C)nc2sc(-c3ccn(C)n3)c(-c3ccccc3)c12 (centres unmarked) [drawing 402] | 0 |
| COC1CCN(c2nc(-c3nccn3C)nc3sc(-c4ccn(C)n4)c(-c4ccccc4)c23)C1 (centres unmarked) [drawing 403] | 0 |
| Cn1ccc(-c2sc3nc(-c4nccn4C)nc(NC4CCOCC4)c3c2-c2ccccc2)n1 [drawing 404] | 1 to 25 |
| Cn1ccc(-c2sc3nc(-c4nccn4C)nc(NCC4CCOC4)c3c2-c2ccccc2)n1 (centres unmarked) [drawing 405] | 0 |
| Cn1ccc(-c2sc3nc(-c4nccn4C)nc(N4CCC5(CCOC5)C4)c3c2-c2ccccc2)n1 (centres unmarked) [drawing 409] | 0 |
| COC1CCN(c2nc(-c3nccn3C)nc3sc(-c4ccn(C)n4)c(-c4ccccc4)c23)CC1 [drawing 410] | 0 |
| COCCCNc1nc(-c2nccn2C)nc2sc(-c3ccn(C)n3)c(-c3ccc(OC)cc3)c12 [drawing 411] | 0 |
| COCC(C)Nc1nc(-c2nccn2C)nc2sc(-c3ccn(C)n3)c(-c3ccc(OC)cc3)c12 (centres unmarked) [drawing 412] | 0 |
| COc1ccc(-c2c(-c3ccn(C)n3)sc3nc(-c4nccn4C)nc(N4CCC(OC)C4)c23)cc1 (centres unmarked) [drawing 413] | 0 |
| COC1CCN(c2nc(-c3nccn3C)nc3sc(-c4ccccc4Cl)c(-c4cscn4)c23)C1 (centres unmarked) [drawing 415] | 0 |
| COc1cccc(-c2sc3nc(-c4nccn4C)nc(N4CCC(OC)C4)c3c2-c2cscn2)c1 (centres unmarked) [drawing 417] | 0 |
| COCCNc1nc(-c2cn(C)cn2)nc2sc(-c3cccc(OC)c3Cl)c(-c3ccc(OC)cc3)c12 [drawing 423] | 0 |
| COCCNc1nc(-c2cn(C)cn2)nc2sc(-c3cc(OC)ccc3Cl)c(-c3ccc(OC)cc3)c12 [drawing 424] | 76 to 100 |
| COc1cc(-c2sc3nc(-c4nccn4C)nc(N4CCC(OC)C4)c3c2-c2ccccc2)ccn1 (centres unmarked) [drawing 427] | 0 |

Same assay, conditions: Homo sapiens, PANC-1 (Table 4C)

| Compound | inhibition at 10 µM [%] |
| --- | --- |
| COc1cccc(-c2sc3nc(C4=NC(C)=NC4C)nc(N[C@@H]4CC[C@H](OC)C4)c3c2C)c1F (some centres unmarked) | 0 |
| CO[C@H]1CC[C@@H](Nc2nc(-c3nccn3C)nc3sc(-c4cccc5[nH]ncc45)c(C)c23)C1 | 0 |
| Cn1ccc(-c2sc3nc(-c4nccn4C)nc(N[C@@H]4CC[C@H](O)C4)c3c2-c2ccccc2)n1 (racemic) [drawing 509] | 0 |

Tested on: MAPK phosphorylation
Assay: MAPK cell-based phosphorylation assay (ELISA or Western), PANC-1
Details: Homo sapiens, PANC-1
Description: Cell lines: Tumor-derived pancreatic cancer cell line PANC-1 was purchased from ATCC and were and grown in DMEM-High Glucose supplemented with penicillin (100 U/mL), streptomycin (100 μg/mL), and 10% heat-inactivated FBS at 37° C. in a humidified incubator with 5% CO2.
Method: Cells were plated at 7500 cells/well density in a 96-well plate, allowed 3 hours to adhere to the plate, then starved in DMEM plus 0.5% FBS overnight. The small molecules to be tested were added to the cells in the final concentration of 10 μM in the presence of 0.3% DMSO for 6 hours incubation at 37° C. For IC50 value determination, serial dilutions of compounds were added to cells under the same conditions. Next, cells were stimulated with 1.5 ng/mL EGF for 15 minutes followed by cell fixation with 4% formaldehyde in PBS at room temperature for 20 minutes. Cell-direct ELISA determined phosphorylation level of MAPK.
Cell-direct ELISA: For each well, cells were permeabilized with 0.1% PBS-Triton X-100, quenched with 0.06% H2O2 in 0.1% PBS-Triton X-100, and probed with anti-phospho-MAPK antibodies (R&D Systems) followed by HRP-conjugated secondary antibody (Jackson Immunoresearch, West Grove, PA). Next, a 50 μM solution of the fluorescent substrate AmpliFlu Red (Sigma) was added and incubated at RT for 20 minutes. At the end of the incubation time, phosphorylation level of MAPK was determined by measuring fluorescence at 595 nm using SpectraMax M3 plate reader (Molecular Devices).
Cell lines: Human NSCLC cells NCI-H1975 and NCI-H1299, and tumor-derived pancreatic cancer cell lines Panc-1, MIA-PaCa-2, and BxPC3, were all purchased from American Type Culture Collection and grown in complete RPMI medium (BxPC3, NCI-H1975 and NCI-H1299) or DMEM-High Glucose (Panc1 and MIA-PaCa-2), supplemented with penicillin (100 U/mL), streptomycin (100 μg/mL), and 10% heat-inactivated FBS at 37° C. in a humidified incubator with 5% CO2.
as §1, with “C. For IC50 value determination, serial dilutions of compounds were added to cells under the same conditions.” for “C.”, “MAPK” for “Akt”
as §2, with “MAPK” for “Akt”, “anti-phospho-p44/42 (Thr202/Tyr204)” for “anti-phospho-Akt (Ser473)”

| Compound | IC50 [nM] |
| --- | --- |
| COc1cccc(-c2sc3nc(-c4nccn4C)nc(N4CCC(OC)C4)c3c2-c2ccccc2)c1F (centres unmarked) [drawing 473] | > 1000 |
| CO[C@H]1CC[C@@H](Nc2nc(-c3nccn3C)nc3sc(-c4ccn(C(C)C)n4)c(-c4ccccc4)c23)C1 [drawing 475] | > 1000 |

Same assay, conditions: Homo sapiens; 10 μM, 6 hours, EGF stimulation, PANC-1

| Compound | inhibition at 10 µM [%] |
| --- | --- |
| COc1cccc(-c2csc3c(O)nc(-c4nccn4C)nc23)c1Cl [drawing 386] | 26 to 50 |
| Cn1ccnc1-c1nc(O)c2scc(-c3ccccn3)c2n1 [drawing 387] | 0 |
| Oc1nc(-c2ncc3n2CCCC3)nc2c(-c3ccccn3)csc12 [drawing 388] | 0 |
| Oc1nc(-c2cn3ccccc3n2)nc2c(-c3ccccn3)csc12 [drawing 389] | 26 to 50 |
| COCCn1ccnc1-c1nc(O)c2scc(-c3ccccn3)c2n1 [drawing 390] | 51 to 75 |
| Cc1cc(Cn2ccnc2-c2nc(O)c3scc(-c4ccccn4)c3n2)on1 [drawing 391] | 0 |
| Oc1nc(-c2nccn2Cc2ccccn2)nc2c(-c3ccccn3)csc12 [drawing 392] | 51 to 75 |
| COc1cccc(Cn2ccnc2-c2nc(O)c3scc(-c4ccccn4)c3n2)c1 [drawing 393] | 51 to 75 |
| Cc1cnc(-c2nc(O)c3scc(-c4ccccn4)c3n2)n1C [drawing 394] | 0 |
| Cc1cn(C)c(-c2nc(O)c3scc(-c4ccccn4)c3n2)n1 [drawing 395] | 0 |
| Oc1nc(-c2ncc3ccccn23)nc2c(-c3ccccn3)csc12 [drawing 396] | 0 |
| Oc1nc(-c2cn3cccnc3n2)nc2c(-c3ccccn3)csc12 [drawing 397] | 0 |
| Oc1nc(-c2cn(-c3ccccc3)cn2)nc2c(-c3ccccn3)csc12 [drawing 398] | 0 |
| COc1ccc(Cn2cnc(-c3nc(O)c4scc(-c5ccccn5)c4n3)c2)cc1 [drawing 399] | 51 to 75 |
| COCCCNc1nc(-c2nccn2C)nc2sc(-c3ccn(C)n3)c(-c3ccccc3)c12 [drawing 400] | 26 to 50 |
| COCCCN(C)c1nc(-c2nccn2C)nc2sc(-c3ccn(C)n3)c(-c3ccccc3)c12 [drawing 401] | 51 to 75 |
| COCC(C)Nc1nc(-c2nccn2C)nc2sc(-c3ccn(C)n3)c(-c3ccccc3)c12 (centres unmarked) [drawing 402] | 51 to 75 |
| COC1CCN(c2nc(-c3nccn3C)nc3sc(-c4ccn(C)n4)c(-c4ccccc4)c23)C1 (centres unmarked) [drawing 403] | 1 to 25 |
| Cn1ccc(-c2sc3nc(-c4nccn4C)nc(NC4CCOCC4)c3c2-c2ccccc2)n1 [drawing 404] | 1 to 25 |
| Cn1ccc(-c2sc3nc(-c4nccn4C)nc(NCC4CCOC4)c3c2-c2ccccc2)n1 (centres unmarked) [drawing 405] | 1 to 25 |
| Cn1ccc(-c2sc3nc(-c4nccn4C)nc(N4CCC5(CCOC5)C4)c3c2-c2ccccc2)n1 (centres unmarked) [drawing 409] | 0 |
| COC1CCN(c2nc(-c3nccn3C)nc3sc(-c4ccn(C)n4)c(-c4ccccc4)c23)CC1 [drawing 410] | 76 to 100 |
| COCCCNc1nc(-c2nccn2C)nc2sc(-c3ccn(C)n3)c(-c3ccc(OC)cc3)c12 [drawing 411] | 0 |
| COCC(C)Nc1nc(-c2nccn2C)nc2sc(-c3ccn(C)n3)c(-c3ccc(OC)cc3)c12 (centres unmarked) [drawing 412] | 1 to 25 |
| COc1ccc(-c2c(-c3ccn(C)n3)sc3nc(-c4nccn4C)nc(N4CCC(OC)C4)c23)cc1 (centres unmarked) [drawing 413] | 1 to 25 |
| COC1CCN(c2nc(-c3nccn3C)nc3sc(-c4ccccc4Cl)c(-c4cscn4)c23)C1 (centres unmarked) [drawing 415] | 0 |
| COc1cccc(-c2sc3nc(-c4nccn4C)nc(N4CCC(OC)C4)c3c2-c2cscn2)c1 (centres unmarked) [drawing 417] | 0 |
| COCCNc1nc(-c2cn(C)cn2)nc2sc(-c3cccc(OC)c3Cl)c(-c3ccc(OC)cc3)c12 [drawing 423] | 76 to 100 |
| COCCNc1nc(-c2cn(C)cn2)nc2sc(-c3cc(OC)ccc3Cl)c(-c3ccc(OC)cc3)c12 [drawing 424] | 76 to 100 |
| COc1cc(-c2sc3nc(-c4nccn4C)nc(N4CCC(OC)C4)c3c2-c2ccccc2)ccn1 (centres unmarked) [drawing 427] | 51 to 75 |

Same assay, conditions: Homo sapiens; 10 μM, PANC-1 (Table 4C)

| Compound | inhibition at 10 µM [%] |
| --- | --- |
| COc1cccc(-c2sc3nc(C4=NC(C)=NC4C)nc(N[C@@H]4CC[C@H](OC)C4)c3c2C)c1F (some centres unmarked) | 76 to 100 |
| CO[C@H]1CC[C@@H](Nc2nc(-c3nccn3C)nc3sc(-c4cccc5[nH]ncc45)c(C)c23)C1 | 76 to 100 |
| Cn1ccc(-c2sc3nc(-c4nccn4C)nc(N[C@@H]4CC[C@H](O)C4)c3c2-c2ccccc2)n1 (racemic) [drawing 509] | 26 to 50 |
